Source: ChEMBL document CHEMBL3045086, “Two-dimensional quantitative structureactivity relationship study on polyphenols as inhibitors of -glucosidase” (Med Chem Res, 2012)

Biological target: Alpha-glucosidase MAL62 (Saccharomyces cerevisiae) (UniProt P07265)
Experiment: Inhibition of baker's yeast alpha-glucosidase using p-nitrophenyl-alpha-D-glucopyranoside as substrate by spectrophotometry

Sequence of Alpha-glucosidase MAL62 (Saccharomyces cerevisiae) (P07265 whole entry): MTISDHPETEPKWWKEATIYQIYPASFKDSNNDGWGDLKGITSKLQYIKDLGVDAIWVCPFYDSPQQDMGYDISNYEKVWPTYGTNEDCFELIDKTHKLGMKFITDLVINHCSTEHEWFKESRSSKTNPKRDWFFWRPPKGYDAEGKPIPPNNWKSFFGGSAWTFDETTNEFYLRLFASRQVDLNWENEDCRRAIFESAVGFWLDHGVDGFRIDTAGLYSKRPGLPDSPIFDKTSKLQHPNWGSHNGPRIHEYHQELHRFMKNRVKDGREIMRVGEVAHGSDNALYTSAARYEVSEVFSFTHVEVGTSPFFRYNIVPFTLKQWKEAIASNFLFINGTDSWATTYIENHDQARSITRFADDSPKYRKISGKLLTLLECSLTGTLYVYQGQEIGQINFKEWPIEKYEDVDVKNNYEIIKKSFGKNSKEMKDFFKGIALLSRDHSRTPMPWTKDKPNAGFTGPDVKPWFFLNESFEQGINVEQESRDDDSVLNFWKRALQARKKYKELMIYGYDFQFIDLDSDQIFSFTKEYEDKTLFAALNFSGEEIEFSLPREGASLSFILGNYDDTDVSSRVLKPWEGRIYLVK

Structure (SMILES)	logIC50
CC1(C)C=Cc2cc(C(=O)/C=C/c3ccc(O)c(O)c3)c(O)cc2O1	1.28
C=C(C)C(CC=C(C)C)Cc1c(O)cc(OC)c2c1OC(c1ccc(O)cc1O)CC2=O (centres undefined)	1.83
OC[C@H]1OC(OC2=C(c3ccc(O)c(O)c3)Oc3cc(O)cc(O)c3C2)[C@@H](O)[C@@H](O)[C@@H]1O (some centres undefined)	1.3
O=C(O)/C=C/c1cccc(O)c1	3.1
C=CC(C)(C)c1c(O)cc(O)c2c(=O)c3oc4c5c(c(OCC=C(C)C)cc4c3oc12)OC(C)(C)C=C5	1.44
COc1ccc([C@@H]2CC(=O)c3c(O)cc(O)cc3O2)cc1O	2.18
COc1ccc(/C=C/C(=O)O)cc1	1.6
O=c1c(O)c(-c2ccc(O)c(O)c2)oc2cc(O)ccc12	1.11
O=c1cc(-c2ccc(O)c(O)c2)oc2cc(O)cc(O)c12	1.32
O=c1c(O)c(-c2ccc(O)cc2)oc2cc(O)cc(O)c12	1.08
Oc1cc(O)c2c(c1)OC(c1cc(O)c(O)c(O)c1)C(O)C2 (centres undefined)	1.88
O=c1c(O)c(-c2ccc(O)c(O)c2)oc2cc(O)cc(O)c12	0.845
O=c1c(-c2ccc(O)cc2)coc2cc(O)cc(O)c12	0.845
CC(C)=CCc1cc(C(=O)/C=C/c2ccc(O)c(O)c2)c(O)cc1O	0.724
O=C(O)/C=C/c1ccc(F)cc1	2.43
CC(C)=CCc1cc(C2CCc3ccc(O)cc3O2)c(CC=C(C)C)c(O)c1O (centres undefined)	1.08
O=c1c(O)c(-c2cc(O)c(O)c(O)c2)oc2cc(O)cc(O)c12	0.699
CC1(C)C=Cc2cc(C(=O)/C=C/c3ccc(O)cc3)c(O)cc2O1	1.09
CC(C)=CCc1cc(C(=O)/C=C/c2ccc(O)cc2)c(O)cc1O	1.04
O=c1c(O)c(-c2ccc(O)cc2O)oc2cc(O)cc(O)c12	1.6
O=C1C[C@@H](c2ccc(O)cc2)Oc2cc(O)cc(O)c21	1.88
CC(C)=CCc1c(C2CCc3ccc(O)cc3O2)cc2c(c1O)OC(C)(C)C=C2 (centres undefined)	1.42

Structure (SMILES)	logIC50
O=C(O)c1cc(O)c(O)c(O)c1	0.716
O=C(O)/C=C/c1ccc(Cl)cc1	2.59
C=C(C)C(CCC(C)(C)O)Cc1c(O)cc(OC)c2c1OC(c1ccc(O)cc1O)CC2=O (centres undefined)	2.25
OC[C@H]1OC(OC2=C(c3cc(O)c(O)c(O)c3)Oc3cc(O)cc(O)c3C2)[C@@H](O)[C@@H](O)[C@@H]1O (some centres undefined)	1.48
Oc1cc(O)c2cc(O)c(-c3ccc(O)c(O)c3)[o+]c2c1	0.602
C=C(C)C(CC=C(C)C)Cc1c(O)cc(OC)c2c1OC(c1ccc(OC)cc1O)CC2=O (centres undefined)	2.19
CC(C)=CCc1cc(-c2oc3cc(O)c(CC=C(C)C)c(O)c3c(=O)c2O)cc(O)c1O	0.322
C=C(C)C(CC=C(C)C)Cc1c(O)cc(O)c2c1OC(c1ccc(O)cc1O)CC2=O (centres undefined)	1.57
O=C(O)/C=C/c1ccc(Oc2ccccc2)cc1	2.64
O=C(OC1Cc2c(O)cc(O)cc2OC1c1cc(O)c(O)c(O)c1)c1cc(O)c(O)c(O)c1 (centres undefined)	0.301
C=CC(C)(C)c1c(O)cc(O)c2c(=O)c(O)c(-c3cc(O)c(O)c(CC=C(C)C)c3)oc12	0.556
COc1cccc(/C=C/C(=O)O)c1	2.76
C=CC(C)(C)c1c(O)cc(O)c2c(=O)c3oc4c(CC=C(C)C)c(O)c(OCC=C(C)C)cc4c3oc12	1.52
CC(C)=CCc1cc(C2CCc3ccc(O)cc3O2)cc(O)c1O (centres undefined)	1.88
COC(=O)c1cc(O)c(O)c(O)c1	1.06
O=c1c(-c2ccc(O)cc2)coc2cc(O)ccc12	1.15
COc1cc(O)c(C(C)=C(C)C)c2c1C(=O)CC(c1ccc(O)cc1)O2 (centres undefined)	2.55
Oc1cc(O)c2c(c1)OC(c1ccc(O)c(O)c1)C(O)C2 (centres undefined)	2.11
C=C(C)C(CC=C(C)C)Cc1c(O)cc(O)c2c1OC(c1ccccc1O)CC2=O (centres undefined)	1.65
O=C(O)/C=C/c1ccc(O)cc1	2.3
C=CC(C)(C)c1cc2c(cc1O)OC(c1cc(O)c(O)c(CC=C(C)C)c1C/C=C\C)CC2 (centres undefined)	1.02
CCOC(=O)/C=C/c1ccc(OC)cc1	1.7
